The results in this text go back to US5374765A, “Method for extracting an amino acid ester from a hydrous solution of a mineral acid salt thereof” (priority 1990, dated 1994).

The nature of this data set: Extraction of amino acid ester from aqueous mineral acid salt solution into 1,2-dichloroethane at constant pH (Table 1). As for the experimental part: 0.1 mole of a mineral acid salt of an amino acid ester, shown in Table 1 was dissolved or suspended in 30 g of water. Thereto was added 60 g of 1,2-dichloroethane. While the mixture was kept at 20°-25° C. and stirred, a 20% water solution of sodium hydroxide was dropwise added thereto in 0.5 hour, and then stirring and extraction were carried out for 0.5 hour while the pH of the aqueous layer was kept at a constant level in the range of 6.5-8.5. The organic layer was separated from the aqueous layer. Then, there were measured percent extraction of fed amino acid ester in organic layer, percent remaining of said ester in aqueous layer, and percent hydrolysis of said ester in aqueous layer (the hydrolyzed ester remains in the aqueous layer as an amino acid).

[1] abbreviates: pH 6.5, 20-25 °C, 1,2-dichloroethane.
Setting [2] is: pH 7.5, 20-25 °C, 1,2-dichloroethane.
Where [3] appears, read: pH 8.5, 20-25 °C, 1,2-dichloroethane.

Regarding Methyl L-aspartate hydrochloride, the “Ester in aqueous layer, percent remaining” value (“Ester … percent remaining” below) (pH 6.5) was 12%; the “Ester … percent remaining” value (pH 7.5) was 3%; the “Ester … percent remaining” value (pH 8.5) was 1%. Also, the “Percent extraction of ester in organic layer” value (from here on “Percent extraction of ester”) reads like this: under setting [1], 88%; under setting [2], 96%; under setting [3], 96%. The “Ester in aqueous layer, percent hydrolysis” value (“Ester … percent hydrolysis” below) is reported as 0% (water/1,2-dichloroethane, pH 6.5); 1% (water/1,2-dichloroethane, pH 7.5); 3% (water/1,2-dichloroethane, pH 8.5).

For `CCOC(=O)c1ccccc1N.Cl` [Ethyl o-aminobenzoate hydrochloride], the “Ester … percent hydrolysis” value runs as follows: under setting [1], 0%; under setting [2], 1%; under setting [3], 3%. Further, the “Ester … percent remaining” value was found to be 6% under setting [1], 2% under setting [2] and 1% under setting [3]. The “Percent extraction of ester” value is, setting by setting: under setting [1], 94%; under setting [2], 97%; under setting [3], 96%.

In the case of `Cl.N[C@@H](Cc1ccccc1)C(=O)OCc1ccccc1` [Benzyl L-phenylalaninate hydrochloride], under setting [1], the “Ester … percent hydrolysis” value stood at 0%; the “Ester … percent remaining” value is 6%; the “Percent extraction of ester” value is 94%. In addition, under setting [2], the “Ester … percent hydrolysis” value amounted to 0%; the “Ester … percent remaining” value was 1%; the “Percent extraction of ester” value was 99%. Under setting [3], the “Ester … percent remaining” value is reported as 1% and the “Percent extraction of ester” value came to 97%.

Take `CCOC(=O)[C@@H](N)Cc1ccccc1.Cl` [Ethyl L-phenylalaninate hydrochloride]: under setting [1], the “Ester … percent hydrolysis” value is on record as 0%; the “Ester … percent remaining” value came out at 8%; the “Percent extraction of ester” value is recorded as 92%. Further, under setting [2], the “Ester … percent hydrolysis” value is listed as 0%; the “Ester … percent remaining” value came out at 2%; the “Percent extraction of ester” value was determined as 98%. Further, under setting [3], the “Ester … percent hydrolysis” value came to 3%; the “Ester … percent remaining” value was 1%; the “Percent extraction of ester” value turned out to be 96%.

On to `COC(=O)CCCN.Cl` [Methyl γ-aminobutyrate hydrochloride], for which, under setting [1], the “Ester … percent hydrolysis” value is listed as 0%; the “Ester … percent remaining” value came out at 11%; the “Percent extraction of ester” value came out at 89%. Under setting [2], the “Ester … percent hydrolysis” value is given as 0%; the “Ester … percent remaining” value is reported as 4%; the “Percent extraction of ester” value came to 96%. Besides, under setting [3], the “Ester … percent hydrolysis” value is listed as 3%; the “Ester … percent remaining” value was determined as 2%; the “Percent extraction of ester” value is listed as 95%.

As for `COC(=O)[C@@H](N)CCCCN.Cl` [Methyl L-lysinate hydrochloride], under setting [1], the “Ester … percent hydrolysis” value was found to be 0%; the “Ester … percent remaining” value was determined as 18%; the “Percent extraction of ester” value is on record as 82%. In addition, under setting [2], the “Ester … percent hydrolysis” value was determined as 0%; the “Ester … percent remaining” value was 9%; the “Percent extraction of ester” value came to 91%. In addition, under setting [3], the “Ester … percent hydrolysis” value is 3%; the “Ester … percent remaining” value stood at 3%; the “Percent extraction of ester” value came to 94%.

For the molecule `Cl.N[C@@H](Cc1ccccc1)C(=O)Oc1ccccc1` [Phenyl L-phenylalaninate hydrochloride], under setting [1], the “Ester … percent hydrolysis” value stood at 0%; the “Ester … percent remaining” value came to 6%; the “Percent extraction of ester” value was found to be 94%. For the same molecule, under setting [2], the “Ester … percent hydrolysis” value came to 2%; the “Ester … percent remaining” value amounted to 1%; the “Percent extraction of ester” value is recorded as 97%. For the same molecule, under setting [3], the “Ester … percent hydrolysis” value came out at 7%; the “Ester … percent remaining” value was found to be 1%; the “Percent extraction of ester” value amounted to 92%.

Consider `COC(=O)[C@@H](N)CO.Cl` [Methyl L-serinate hydrochloride], for which, under setting [1], the “Ester … percent hydrolysis” value is given as 0%; the “Ester … percent remaining” value was 14%; the “Percent extraction of ester” value amounted to 86%. Under setting [2], the “Ester … percent hydrolysis” value came to 0%; the “Ester … percent remaining” value is reported as 5%; the “Percent extraction of ester” value is listed as 95%. In addition, under setting [3], the “Ester … percent hydrolysis” value came to 4%; the “Ester … percent remaining” value stood at 2%; the “Percent extraction of ester” value is reported as 94%.
